Results published in patent US20220073496A1, “NOVEL QUINOLINE DERIVATIVE INHIBITOR” (Nanjing Transthera Biosciences Co., Ltd., priority 2018, published 2022).

Key:
[1] = molecular target: T1, CSF1R (h) (Homo sapiens, UniProt P07333); experiment: Enzymatic activity test, CSF1R (h); type: biochemical; settings: 10 μM [γ-33P]-ATP, 40 minutes, room temperature
T1 construct: purchased
Method: Assay 3: Enzymatic Activity Test of the Compounds of the Present Invention
Test substances: the compounds of the present invention, wherein the structures and preparations thereof were as described above.
(1) Preparation of the Compound Stock Solution
The compound was dissolved in 100% DMSO to prepare a stock solution with a maximum concentration of 500 μM.
(2) Preparation of the Compound Working Solution
The compound stock solution was diluted to final concentrations of 500, 150, 50, 15, 5, 1.5, 0.5, 0.15 and 0.05 μM to become the compound working solutions (50×).
(3) Preparation of Different Enzyme Reaction Solutions
The enzymatic reaction was activated by using 10 mM magnesium acetate and 10 μM [γ-^33P]-ATP to form an Mg/ATP mixed solution.
In a 384-well plate, the compound working solution was added to final concentrations of 10000, 3000, 1000, 300, 100, 30, 10, 3, and 1 nM. Then different enzyme reaction solutions prepared according to the above conditions were added. The incubation was carried out for 40 minutes at room temperature. The test was terminated by the addition of a 0.5% phosphoric acid solution. 10 μL of the reaction solution was taken and dropped to the P30 filter paper. […] The grayscale analysis of the results was performed using Image J software and the IC50 values were calculated using GraphPad 5.0 software.

[2] = molecular target: T2, H1299 cell pMer (Homo sapiens, UniProt Q12866); experiment: Inhibitory activity on the cell pMer (Western Blot); type: cell-based; settings: H1299 cells, compound 0.35, 1.1, 3.3, 10 nM, Human MerMab 200 ng/mL
T2 construct: The H1299 cells were inoculated in a 6-well plate; endogenous in cells; host or cells: H1299
T2 sequence (Q12866 21-999): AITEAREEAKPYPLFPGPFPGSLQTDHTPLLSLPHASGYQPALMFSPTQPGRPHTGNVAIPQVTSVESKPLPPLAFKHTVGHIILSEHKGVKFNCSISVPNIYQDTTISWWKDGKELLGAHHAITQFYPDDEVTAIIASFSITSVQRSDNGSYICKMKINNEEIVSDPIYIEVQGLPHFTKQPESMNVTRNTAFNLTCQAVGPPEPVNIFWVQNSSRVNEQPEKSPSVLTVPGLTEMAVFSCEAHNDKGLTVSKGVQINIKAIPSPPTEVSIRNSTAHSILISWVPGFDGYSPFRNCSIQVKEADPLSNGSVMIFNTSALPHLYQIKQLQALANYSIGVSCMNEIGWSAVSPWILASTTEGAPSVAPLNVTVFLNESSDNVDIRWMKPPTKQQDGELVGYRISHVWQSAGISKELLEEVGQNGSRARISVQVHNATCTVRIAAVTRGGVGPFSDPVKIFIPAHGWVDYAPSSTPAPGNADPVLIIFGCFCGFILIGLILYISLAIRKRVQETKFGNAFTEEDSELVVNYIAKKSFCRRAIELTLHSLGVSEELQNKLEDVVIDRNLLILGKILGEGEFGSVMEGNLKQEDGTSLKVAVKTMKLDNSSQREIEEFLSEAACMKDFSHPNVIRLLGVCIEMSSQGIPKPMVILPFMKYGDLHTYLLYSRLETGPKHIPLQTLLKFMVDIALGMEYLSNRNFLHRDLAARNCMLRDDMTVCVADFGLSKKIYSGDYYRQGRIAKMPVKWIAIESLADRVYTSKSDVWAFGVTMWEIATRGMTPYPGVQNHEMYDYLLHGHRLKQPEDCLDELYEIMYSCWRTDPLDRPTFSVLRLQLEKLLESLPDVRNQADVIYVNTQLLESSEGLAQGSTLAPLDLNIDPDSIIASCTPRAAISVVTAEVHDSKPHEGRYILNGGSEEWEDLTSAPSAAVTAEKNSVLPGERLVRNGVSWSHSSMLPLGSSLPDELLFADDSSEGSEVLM
Method: Assay 6: Test for Inhibitory Activities of the Compounds of the Present Invention on the Cell pMer
H1299 is a non-small cell lung cancer cell.
Test substances: the compounds of the present invention, wherein the structures thereof were as described above.
Test equipment: protein electrophoresis apparatus (manufactured by Bio Rad), transfer unit (manufactured by Bio Rad), exposure unit (manufactured by Tanon), CO2 cell incubator (manufactured by Thermo).
The H1299 cells were inoculated in a 6-well plate (containing 10% FBS 1640 medium, 5×10^5 cells per well), and adherent cells were cultivated at 37° C. in a 5% CO2 condition for 18 hours. The cells were starved overnight. Different concentrations of compounds were added. The final compound concentrations were 0.35, 1.1, 3.3 and 10 nM, and the final DMSO content was 1‰. The negative control wells contained the medium containing 1‰ DMSO. After incubating at 37° C. in a 5% CO2 condition for 60 minutes, Human MerMab (R&D, final concentration 200 ng/mL) was added to each well. After further incubating for 60 minutes, the cell total protein was extracted for Western Blot and the IC50 values were calculated using GraphPad 5.0 software. The inhibitory activity of the compound on the cell pMer was examined.

T1 sequence (P07333 20-972): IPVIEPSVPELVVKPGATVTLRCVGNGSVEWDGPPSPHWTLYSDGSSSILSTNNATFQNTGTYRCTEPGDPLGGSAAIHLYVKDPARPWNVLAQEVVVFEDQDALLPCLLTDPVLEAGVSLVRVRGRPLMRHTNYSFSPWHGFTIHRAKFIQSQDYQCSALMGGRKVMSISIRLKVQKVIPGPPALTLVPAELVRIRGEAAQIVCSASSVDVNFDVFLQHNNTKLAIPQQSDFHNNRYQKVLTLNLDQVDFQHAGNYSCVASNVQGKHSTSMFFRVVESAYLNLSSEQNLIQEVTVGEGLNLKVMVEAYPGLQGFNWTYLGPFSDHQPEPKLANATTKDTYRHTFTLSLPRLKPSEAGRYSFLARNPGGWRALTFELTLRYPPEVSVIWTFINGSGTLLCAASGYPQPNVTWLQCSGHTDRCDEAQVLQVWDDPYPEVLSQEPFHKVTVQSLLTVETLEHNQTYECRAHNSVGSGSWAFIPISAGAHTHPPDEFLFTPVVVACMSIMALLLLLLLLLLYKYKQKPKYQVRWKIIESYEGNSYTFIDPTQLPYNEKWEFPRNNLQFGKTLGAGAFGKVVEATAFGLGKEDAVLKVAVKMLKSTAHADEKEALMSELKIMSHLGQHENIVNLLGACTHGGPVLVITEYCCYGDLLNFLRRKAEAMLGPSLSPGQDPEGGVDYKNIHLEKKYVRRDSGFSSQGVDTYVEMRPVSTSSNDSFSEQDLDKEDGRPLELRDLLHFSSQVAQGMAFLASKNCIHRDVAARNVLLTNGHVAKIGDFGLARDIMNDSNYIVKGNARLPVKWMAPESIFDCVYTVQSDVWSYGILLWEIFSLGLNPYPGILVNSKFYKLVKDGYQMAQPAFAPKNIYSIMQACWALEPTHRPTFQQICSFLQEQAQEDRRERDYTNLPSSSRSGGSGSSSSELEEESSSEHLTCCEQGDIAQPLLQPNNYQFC

Compound | IC50 [1] [µM] | IC50 [2] [µM]
COc1cc2nccc(Oc3ncc(NC(=O)c4cn(C(C)C)nc(-c5ccc(F)cc5)c4=O)cn3)c2cc1OC [Compound 40, N-(2-((6,7-dimethoxyquinolin-4-yl)oxy)pyrimidine-5-yl)-6-(4-fluorophenyl)-2-isopropyl-5-oxo-2,5-dihydropyridazine-4-carboxamide] | 0.259 | 
COc1cc2nccc(Oc3cnc(NC(=O)c4cn(C(C)C)nc(-c5ccc(F)cc5)c4=O)nc3)c2cc1OC [Compound 39, N-(5-((6,7-dimethoxyquinolin-4-yl)oxy)pyrimidine-2-yl)-6-(4-fluorophenyl)-2-isopropyl-5-oxo-2,5-dihydropyridazine-4-carboxamide] | 0.034 | 0.0011
COc1cc2nccc(Oc3ccc(NC(=O)c4cn(C(C)C)nc(-c5ccc(F)cc5)c4=O)nc3)c2cc1OC [Compound 41, N-(5-((6,7-dimethoxyquinolin-4-yl)oxy)pyridin-2-yl)-6-(4-fluorophenyl)-2-isopropyl-5-oxo-2,5-dihydropyridazine-4-carboxamide] |  | < 0.0033
COc1cc2nccc(Oc3ccc(NC(=O)c4cn(C5CC5)nc(-c5ccc(F)cc5)c4=O)nc3)c2cc1OC [Compound 42, 2-cyclopropyl-N-(5--((6,7-dimethoxyquinolin-4-yl)oxy)pyridin-2-yl)-6-(4-fluorophenyl)-5-oxo-2,5-dihydropyridazine-4-carboxamide] |  | < 0.0011
COc1cc2nccc(Oc3cnc(NC(=O)c4cn(C5CC5)nc(-c5ccc(F)cc5)c4=O)nc3)c2cc1OC [Compound 45, 2-cyclopropyl-N-(5-((6,7-dimethoxyquinolin-4-yl)oxy)pyrimidine-2-yl)-6-(4-fluorophenyl)-5-oxo-2,5-dihydropyridazine-4-carboxamide] |  | < 0.0011
COc1cc2nccc(Oc3ccc(NC(=O)c4nn(C(C)C)cc(-c5ccc(F)cc5)c4=O)nc3)c2cc1OC [Compound 15, N-(5-((6,7-dimethoxyquinolin-4-yl)oxy)pyridin-2-yl)-5-(4-fluorophenyl)-1-isopropyl-4-oxo-1,4-dihydropyridazine-3-carboxamide] | 0.038 | < 0.00035
COc1cc2nccc(Oc3cnc(NC(=O)c4cn(C(C)C)cc(-c5ccc(F)cc5)c4=O)nc3)c2cc1OC [Compound 20, N-(5-((6,7-dimethoxyquinolin-4-y)oxy)pyrimidine-2-yl)-5-(4-fluorophenyl)-1-isopropyl-4-oxo-1,4-dihydropyridin-3-carboxamide] | 0.078 | 0.0011
COc1cc2nccc(Oc3ncc(NC(=O)c4nn(C(C)C)cc(-c5ccc(F)cc5)c4=O)cn3)c2cc1OC [Compound 34, N-(2-((6,7-dimethoxyquinolin-4-yl)oxy)pyrimidine-5-yl)-5-para-fluorophenyl-1-isopropyl-4-oxo-1,4-dihydropyridazine-3-carboxamide] | 0.161 | < 0.0011
COc1cc2nccc(Oc3ccc(NC(=O)c4nn(C(C)C)cc(-c5ccc(F)cc5)c4=O)cn3)c2cc1OC [Compound 29, N-(6-((6,7-dimethoxyquinolin-4-yl)oxy)pyridin-3-yl)-1-isopropyl-4-oxo-5-para-fluorophenyl-1,4-dihydropyridazine-3-carboxamide] | 0.051 | < 0.0011
COc1cc2nccc(Oc3ccc(NC(=O)c4cn(C5CC5)cc(-c5ccc(F)cc5)c4=O)nc3)c2cc1OC [Compound 30, N-(5-((6,7-dimethoxyquinolin-4-yl)oxy)pyridin-2-yl)-1-cyclopropyl-4-oxo-5-para-fluorophenyl-1,4-hydropyridin-3-carboxamide] | 0.061 | 0.0011 to 0.0033
COc1cc2nccc(Oc3ccc(NC(=O)c4cn(C(C)C)nc(-c5ccc(F)cc5)c4=O)cn3)c2cc1OC [Compound 38, N-(6-((6,7-dimethoxyquinolin-4-yl)oxy)pyridin-3-yl)-6-para-fluorophenyl-2-isopropyl-5-oxo-2,5-dihydropyridazine-4-carboxamide] | 0.057 | 
COc1cc2nccc(Oc3ccc(NC(=O)c4cn(C(C)C)cc(-c5ccc(F)cc5)c4=O)nc3)c2cc1OC [Compound 14, N-(5-((6,7-dimethoxyquinolin-4-yl)oxy)pyridin-2-yl)-5-(4-fluorophenyl)-1-isopropyl-4-oxo-1,4-dihydropyridin-3-carboxamide] | 0.055 | 0.00035
COc1cc2nccc(Oc3ccc(NC(=O)c4nn(C5CC5)cc(-c5ccc(F)cc5)c4=O)cn3)c2cc1OC [Compound 36] | 0.068 | < 0.00035
COc1cc2nccc(Oc3cnc(NC(=O)c4nn(C(C)C)cc(-c5ccc(F)cc5)c4=O)nc3)c2cc1OC [Compound 16, N-(5-((6,7-dimethoxyquinolin-4-yl)oxy)pyrimidine-2-yl)-5-(4-fluorophenyl)-1-isopropyl-4-oxo-1,4-dihydropyridazine-3-carboxamide] | 0.061 | < 0.0011
COc1cc2nccc(Oc3ncc(NC(=O)c4nn(C5CC5)cc(-c5ccc(F)cc5)c4=O)cn3)c2cc1OC [Compound 37, 1-cyclopropyl-N-(2-((6,7-dimethoxyquinolin-4-yl)oxy)pyrimidine-5-yl)-5-para-fluorophenyl-4-oxo-1,4-dihydropyridazine-3-carboxamide] |  | 0.0011 to 0.0033
COc1cc2nccc(Oc3cnc(NC(=O)c4cn(C5CC5)cc(-c5ccc(F)cc5)c4=O)nc3)c2cc1OC [Compound 32, 1-cyclopropyl-N-(5-((6,7-dimethoxyquinolin-4-yl)oxy)pyrimidine-2-yl)-5-(4-fluorophenyl)-4-oxo-1,4-dihydropyridin-3-carboxamide] | 0.093 | < 0.0011
COc1cc2nccc(Oc3ccc(NC(=O)c4nn(C5CC5)cc(-c5ccc(C)cc5)c4=O)nc3)c2cc1OC [Compound 46, 1-cyclopropyl-N-(5-((6,7-dimethoxyquinolin-4-yl)oxy)pyridin-2-yl)-4-oxo-5-p-tolyl-1,4-dihydropyridazine-3-carboxamide] |  | < 0.00037
COc1cc2nccc(Oc3ccc(NC(=O)c4cn(C(C)C)cc(-c5ccc(C)cc5)c4=O)nc3)c2cc1OC [Compound 1, N-(5-((6,7-dimethoxyquinolin-4-yl)oxy)pyridin-2-yl)-1-isopropyl-4-oxo-5-p-tolyl-1,4-dihydropyridin-3-carboxamide] | 0.2 | 0.0011 to 0.0033
COc1cc2nccc(Oc3cnc(NC(=O)c4nn(C5CC5)cc(-c5ccc(F)cc5)c4=O)nc3)c2cc1OC [Compound 33] | 0.037 | < 0.0011
COc1cc2nccc(Oc3ccc(NC(=O)c4cn(C5CC5)nc(-c5ccc(F)cc5)c4=O)cn3)c2cc1OC [Compound 43, 2-cyclopropyl-N-(6-((6,7-dimethoxyquinolin-4-yl)oxy)pyridin-3-yl)-6-para-fluorophenyl-5-oxo-2,5-dihydropyridazine-4-carboxamide] |  | < 0.0011
